Reference: the supplement of paper PMC8253809

Legend:
HGGX39 [1] = paediatric high-grade glioma line; test: maximal growth inhibition (yFin) relative to DMSO / staurosporine; higher = more efficacious
Method in brief: (§1)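 A pin tool was used to add a 10-point threefold dilution series (mean top concentration 35 μM), in triplicate, to patient-derived pHGG/DIPG cell lines and astrocyte controls seeded on 384-well plates coated with 1% Geltrex. After 7 days at 37 °C and 5% CO2 (3 days for iAstro), CellTiter-Glo luminescence was log2-transformed, normalised on each plate to % activity relative to negative (solvent) and positive control wells, and pooled. EC50 and maximal response (yFin) were read from the three- or four-parameter log-logistic fit with the lowest AICc.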

HGGX6 [2] = H3.3 G34R paediatric high-grade glioma line; test: as above
Method in brief: as §1

HGGX39 [3] = test: area under dose-response curve of % growth inhibition (log2 RLU vs DMSO / staurosporine), 1e-11 to 1e-4 M (% x log10 M); higher = more growth inhibition
Method in brief: (§2)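 A 10-point threefold dilution series, mean top concentration 35 μM, was applied in triplicate to patient-derived pHGG/DIPG lines and astrocytes on 1% Geltrex-coated 384-well plates for 7 days (3 days for iAstro) at 37 °C, 5% CO2. Per-plate % activity between solvent and positive controls was calculated from log2-transformed CellTiter-Glo luminescence. Area under the curve followed from the trapezoid rule on a log-logistic fit, or on a smoothing spline when the sigmoid fit failed.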

DIPGX37 [4] = H3.3 K27M diffuse intrinsic pontine glioma line; test: as above
Method in brief: as §2

HGGX6 [5] = test: as above
Method in brief: as §2

DIPGX29 = H3.3 K27M diffuse intrinsic pontine glioma line; test: as above
Method in brief: as §2

HGGX39 [6] = test: EC50 (inflection of fitted growth-inhibition curve) (log10 M)
Method in brief: as §1

HGGX6 [7] = test: as above
Method in brief: as §1

DIPGX37 [8] = test: maximal growth inhibition (yFin) relative to DMSO / staurosporine; higher = more efficacious
Method in brief: as §1

DIPGX37 [9] = test: EC50 (inflection of fitted growth-inhibition curve) (log10 M)
Method in brief: as §1

SMILES: Cc1ccc(C(=O)Nc2ccc(Oc3cc4cnn(C)c4cc3-c3cn[nH]c3)c(F)c2)c(=O)n1-c1ccc(F)cc1
- maximal growth inhibition (HGGX39 [1]): 20.9%
- maximal growth inhibition (HGGX6 [2]): 25.3%
- area under dose-response curve (HGGX39 [3]): 28.1
- area under dose-response curve (DIPGX37 [4]): 16.1
- area under dose-response curve (HGGX6 [5]): 41.1
- area under dose-response curve (DIPGX29): 22.4
- EC50 (log10 M) (HGGX39 [6]): -5.27
- EC50 (log10 M) (HGGX6 [7]): -5.1

SMILES: Nc1nccc(-c2c(-c3ccc(F)cc3)ncn2C2CCCCC2)n1
- maximal growth inhibition (HGGX6 [2]): 21%
- area under dose-response curve (HGGX39 [3]): 21.3
- area under dose-response curve (DIPGX37 [4]): 21.5
- area under dose-response curve (HGGX6 [5]): 31.7
- area under dose-response curve (DIPGX29): 16.4
- EC50 (log10 M) (HGGX6 [7]): -4.94

SMILES: CC(=O)OC12COC1CC(O)C1(C)C(=O)C(O)C3=C(C)C(O)CC(O)(C(OC(=O)c4ccccc4)C21)C3(C)C (stereo not drawn) [10-DEACETYLBACCATIN-III]
- maximal growth inhibition (HGGX39 [1]): 39.6%
- maximal growth inhibition (DIPGX37 [8]): 31.4%
- area under dose-response curve (HGGX39 [3]): 47.3
- area under dose-response curve (DIPGX37 [4]): 28.9
- area under dose-response curve (HGGX6 [5]): 14.9
- area under dose-response curve (DIPGX29): 13.6
- EC50 (log10 M) (HGGX39 [6]): -5.19
- EC50 (log10 M) (DIPGX37 [9]): -4.92

SMILES: Clc1cc2c(NC3CCCC3)nnc(-c3ccncc3)c2cc1Cl [A-196]
- maximal growth inhibition (DIPGX37 [8]): 23.4%
- area under dose-response curve (HGGX39 [3]): 2.32
- area under dose-response curve (DIPGX37 [4]): 18.8
- area under dose-response curve (HGGX6 [5]): 3.18
- area under dose-response curve (DIPGX29): 2.12
- EC50 (log10 M) (DIPGX37 [9]): -4.53

SMILES: COc1cc(Nc2ncc3c(n2)-c2ccc(Cl)cc2C(c2c(F)cccc2OC)=NC3)ccc1C(=O)O [ALISERTIB]
- maximal growth inhibition (HGGX39 [1]): 39.1%
- maximal growth inhibition (HGGX6 [2]): 24.7%
- area under dose-response curve (HGGX39 [3]): 69.3
- area under dose-response curve (DIPGX37 [4]): 66.4
- area under dose-response curve (HGGX6 [5]): 49.8
- area under dose-response curve (DIPGX29): 52.1
- EC50 (log10 M) (HGGX39 [6]): -4.99
- EC50 (log10 M) (HGGX6 [7]): -5.31

SMILES: C[C@@H]1CC[C@H]2[C@@H](C)C(=O)O[C@@H]3O[C@@]4(C)CC[C@@H]1[C@]32OO4 [ARTEMISININ]
- maximal growth inhibition (HGGX39 [1]): 29.7%
- maximal growth inhibition (DIPGX37 [8]): 32.7%
- area under dose-response curve (HGGX39 [3]): 36.8
- area under dose-response curve (DIPGX37 [4]): 42.5
- area under dose-response curve (HGGX6 [5]): 20.9
- area under dose-response curve (DIPGX29): 19.7
- EC50 (log10 M) (HGGX39 [6]): -5.38
- EC50 (log10 M) (DIPGX37 [9]): -5.3

SMILES: Cc1c(N)nc([C@H](CC(N)=O)NC[C@H](N)C(N)=O)nc1C(=O)N[C@H](C(=O)N[C@H](C)[C@@H](O)[C@H](C)C(=O)N[C@H](C(=O)NCCc1nc(-c2nc(C(=O)NCCC[S+](C)C)cs2)cs1)[C@@H](C)O)[C@@H](OC1OC(CO)C(O)C(O)C1OC1OC(CO)C(O)C(OC(N)=O)C1O)c1cnc[nH]1 (stereo partly drawn) [BLEOMYCIN]
- maximal growth inhibition (DIPGX37 [8]): 24.8%
- area under dose-response curve (HGGX39 [3]): 19.5
- area under dose-response curve (DIPGX37 [4]): 40.4
- area under dose-response curve (HGGX6 [5]): 6.9
- area under dose-response curve (DIPGX29): 22.6
- EC50 (log10 M) (DIPGX37 [9]): -5.22

SMILES: C/C=C(\C)C(=O)N[C@@H](c1ccccc1)[C@@H](O)C(=O)O[C@H]1C[C@@]2(O)[C@@H](OC(=O)c3ccccc3)[C@@H]3[C@]4(OC(C)=O)CO[C@@H]4C[C@H](O)[C@@]3(C)C(=O)[C@H](OC(C)=O)C(=C1C)C2(C)C [CEPHALOMANNINE]
- maximal growth inhibition (HGGX39 [1]): 48.4%
- maximal growth inhibition (DIPGX37 [8]): 28.2%
- area under dose-response curve (HGGX39 [3]): 180
- area under dose-response curve (DIPGX37 [4]): 101
- area under dose-response curve (HGGX6 [5]): 54.1
- area under dose-response curve (DIPGX29): 46.7
- EC50 (log10 M) (HGGX39 [6]): -7.73
- EC50 (log10 M) (DIPGX37 [9]): -7.58

SMILES: Cc1sc2c(c1C)C(c1ccc(Cl)cc1)=N[C@@H](CC(N)=O)c1nnc(C)n1-2 [CPI-203]
- maximal growth inhibition (DIPGX37 [8]): 22.3%
- area under dose-response curve (HGGX39 [3]): 47.1
- area under dose-response curve (DIPGX37 [4]): 62.1
- area under dose-response curve (HGGX6 [5]): 35.8
- area under dose-response curve (DIPGX29): 26.8
- EC50 (log10 M) (DIPGX37 [9]): -6.88

SMILES: CCc1c2c(nc3ccc(OC(=O)N4CCC(N5CCCCC5)CC4)cc13)-c1cc3c(c(=O)n1C2)COC(=O)[C@]3(O)CC [IRINOTECAN]
- maximal growth inhibition (HGGX39 [1]): 53.2%
- maximal growth inhibition (DIPGX37 [8]): 20.5%
- area under dose-response curve (HGGX39 [3]): 107
- area under dose-response curve (DIPGX37 [4]): 56.4
- area under dose-response curve (HGGX6 [5]): 25.9
- area under dose-response curve (DIPGX29): 52.4
- EC50 (log10 M) (HGGX39 [6]): -5.98
- EC50 (log10 M) (DIPGX37 [9]): -7.09

SMILES: CCC(C)n1ncn(-c2ccc(N3CCN(c4ccc(OCC5COC(Cn6cncn6)(c6ccc(Cl)cc6Cl)O5)cc4)CC3)cc2)c1=O (stereo not drawn) [ITRACONAZOLE]
- maximal growth inhibition (DIPGX37 [8]): 62.3%
- area under dose-response curve (HGGX39 [3]): 28.4
- area under dose-response curve (DIPGX37 [4]): 56.7
- area under dose-response curve (HGGX6 [5]): 29.7
- area under dose-response curve (DIPGX29): 20
- EC50 (log10 M) (DIPGX37 [9]): -4.91

SMILES: N[C@@H](Cc1cc(I)c(Oc2ccc(O)c(I)c2)c(I)c1)C(=O)O [LIOTHYRONINE]
- maximal growth inhibition (HGGX39 [1]): 26.4%
- maximal growth inhibition (DIPGX37 [8]): 26.5%
- area under dose-response curve (HGGX39 [3]): 51.4
- area under dose-response curve (DIPGX37 [4]): 62.2
- area under dose-response curve (HGGX6 [5]): 11.9
- area under dose-response curve (DIPGX29): 31.4
- EC50 (log10 M) (HGGX39 [6]): -5.95
- EC50 (log10 M) (DIPGX37 [9]): -5.69

SMILES: Cc1cc(=O)n(C)c2cc(N3C(=O)CC[C@H](NS(=O)(=O)CC(C)C)[C@H]3c3ccc(Cl)cc3)ccc12 [LP-99]
- maximal growth inhibition (HGGX6 [2]): 22.4%
- area under dose-response curve (HGGX39 [3]): 11.5
- area under dose-response curve (DIPGX37 [4]): 10.2
- area under dose-response curve (HGGX6 [5]): 21.2
- area under dose-response curve (DIPGX29): 12.9
- EC50 (log10 M) (HGGX6 [7]): -4.95

SMILES: CC[C@H](C)C(=O)O[C@H]1CCC=C2C=C[C@H](C)[C@H](CC[C@@H]3C[C@@H](O)CC(=O)O3)[C@H]21 [MEVASTATIN]
- maximal growth inhibition (HGGX39 [1]): 57.7%
- maximal growth inhibition (DIPGX37 [8]): 20.8%
- area under dose-response curve (HGGX39 [3]): 56.7
- area under dose-response curve (DIPGX37 [4]): 41.4
- area under dose-response curve (HGGX6 [5]): 23.3
- area under dose-response curve (DIPGX29): 32.6
- EC50 (log10 M) (HGGX39 [6]): -4.97
- EC50 (log10 M) (DIPGX37 [9]): -5.53

SMILES: O=C1c2c(O)ccc(O)c2C(=O)c2c(NCCNCCO)ccc(NCCNCCO)c21 [MITOXANTHRONE]
- maximal growth inhibition (DIPGX37 [8]): 81.9%
- area under dose-response curve (HGGX39 [3]): 116
- area under dose-response curve (DIPGX37 [4]): 104
- area under dose-response curve (HGGX6 [5]): 112
- area under dose-response curve (DIPGX29): 116
- EC50 (log10 M) (DIPGX37 [9]): -4.79

SMILES: COc1ccc(C2CC(c3ccccc3)=NN2c2ccc(S(N)(=O)=O)cc2)cc1 (stereo not drawn) [ML141]
- maximal growth inhibition (HGGX39 [1]): 38.3%
- area under dose-response curve (HGGX39 [3]): 20
- area under dose-response curve (DIPGX37 [4]): 33.4
- area under dose-response curve (HGGX6 [5]): 33.7
- area under dose-response curve (DIPGX29): 26.6
- EC50 (log10 M) (HGGX39 [6]): -4.54

SMILES: Cc1sc2c(c1C)C(c1ccc(Cl)cc1)=N[C@@H](CC(=O)Nc1ccc(O)cc1)c1nnc(C)n1-2 [OTX015]
- maximal growth inhibition (HGGX39 [1]): 50.6%
- maximal growth inhibition (DIPGX37 [8]): 29.5%
- area under dose-response curve (HGGX39 [3]): 53.1
- area under dose-response curve (DIPGX37 [4]): 80
- area under dose-response curve (HGGX6 [5]): 33.7
- area under dose-response curve (DIPGX29): 30.3
- EC50 (log10 M) (HGGX39 [6]): -5.11
- EC50 (log10 M) (DIPGX37 [9]): -6.7

SMILES: CC(=O)O[C@H]1C(=O)[C@@]2(C)[C@H]([C@H](OC(=O)c3ccccc3)[C@]3(O)C[C@H](OC(=O)[C@H](O)[C@@H](NC(=O)c4ccccc4)c4ccccc4)C(C)=C1C3(C)C)[C@]1(OC(C)=O)CO[C@@H]1C[C@@H]2O [PACLITAXEL]
- maximal growth inhibition (HGGX39 [1]): 42.5%
- maximal growth inhibition (DIPGX37 [8]): 24.3%
- area under dose-response curve (HGGX39 [3]): 179
- area under dose-response curve (DIPGX37 [4]): 99.3
- area under dose-response curve (HGGX6 [5]): 55.2
- area under dose-response curve (DIPGX29): 42.1
- EC50 (log10 M) (HGGX39 [6]): -8.21
- EC50 (log10 M) (DIPGX37 [9]): -8.09
